We go through 24 compounds from patent US9242987B2, “Heterocyclyl pyrazolopyrimidine analogues as JAK inhibitors” (Cellzome Limited, priority 2009, dated 2016).

One test addresses T1, JAK2 (Homo sapiens, UniProt O60674).
T1 construct: endogenous in cells; host or cells: Mixed Molt4/Ramos lysate (1:2)
The test can be described thus: Kinobeads assay, JAK2. It is filed as binding. The following applies: mixed Molt4/Ramos cell lysate, dot blot detection. The essentials: (§1)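 Lysate from Molt4 and Ramos cells combined 1:2 at 10 mg/mL total protein met test compound and an aminopyrido-pyrimidine affinity matrix for 3 h in the cold. Captured JAK2 and JAK3, after elution, were measured by specific-antibody dot blot on an infrared system; dose-response curves yielded IC50.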

Another test addresses T2, JAK3 (Homo sapiens, UniProt P52333).
T2 construct: endogenous in cells; host or cells: Mixed Molt4/Ramos lysate (1:2)
T2 sequence (P52333 1-1124): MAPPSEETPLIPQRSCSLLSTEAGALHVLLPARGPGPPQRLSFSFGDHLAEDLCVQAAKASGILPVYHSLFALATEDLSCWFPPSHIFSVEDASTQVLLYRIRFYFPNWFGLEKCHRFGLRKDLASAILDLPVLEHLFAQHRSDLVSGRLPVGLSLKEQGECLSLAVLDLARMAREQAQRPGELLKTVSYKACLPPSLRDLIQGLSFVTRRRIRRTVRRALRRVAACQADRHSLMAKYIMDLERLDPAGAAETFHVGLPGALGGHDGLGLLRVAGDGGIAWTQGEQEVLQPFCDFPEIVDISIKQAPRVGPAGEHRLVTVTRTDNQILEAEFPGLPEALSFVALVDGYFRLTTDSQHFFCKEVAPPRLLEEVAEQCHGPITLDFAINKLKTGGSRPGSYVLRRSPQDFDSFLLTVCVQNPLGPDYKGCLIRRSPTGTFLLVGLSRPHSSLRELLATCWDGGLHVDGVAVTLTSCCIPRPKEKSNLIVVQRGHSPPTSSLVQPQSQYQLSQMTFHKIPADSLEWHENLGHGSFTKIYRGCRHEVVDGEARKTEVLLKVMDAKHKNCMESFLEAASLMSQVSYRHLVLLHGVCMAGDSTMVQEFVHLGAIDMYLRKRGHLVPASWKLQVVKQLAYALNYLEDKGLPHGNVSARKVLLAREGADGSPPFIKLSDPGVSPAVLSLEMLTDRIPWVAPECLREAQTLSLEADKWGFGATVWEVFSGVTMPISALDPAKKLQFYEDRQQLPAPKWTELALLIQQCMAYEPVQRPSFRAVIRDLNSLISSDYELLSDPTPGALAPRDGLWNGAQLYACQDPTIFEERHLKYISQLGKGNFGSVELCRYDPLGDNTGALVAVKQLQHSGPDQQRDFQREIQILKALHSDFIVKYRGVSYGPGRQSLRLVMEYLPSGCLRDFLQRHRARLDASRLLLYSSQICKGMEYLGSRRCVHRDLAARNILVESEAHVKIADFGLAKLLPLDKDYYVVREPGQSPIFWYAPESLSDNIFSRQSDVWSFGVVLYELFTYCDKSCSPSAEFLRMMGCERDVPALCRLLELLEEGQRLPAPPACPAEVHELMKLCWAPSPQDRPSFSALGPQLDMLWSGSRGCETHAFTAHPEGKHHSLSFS
The test can be described thus: Kinobeads assay, JAK3. It is filed as binding. The following applies: mixed Molt4/Ramos cell lysate, dot blot detection. The method in brief: as §1

T1 sequence (O60674 whole entry): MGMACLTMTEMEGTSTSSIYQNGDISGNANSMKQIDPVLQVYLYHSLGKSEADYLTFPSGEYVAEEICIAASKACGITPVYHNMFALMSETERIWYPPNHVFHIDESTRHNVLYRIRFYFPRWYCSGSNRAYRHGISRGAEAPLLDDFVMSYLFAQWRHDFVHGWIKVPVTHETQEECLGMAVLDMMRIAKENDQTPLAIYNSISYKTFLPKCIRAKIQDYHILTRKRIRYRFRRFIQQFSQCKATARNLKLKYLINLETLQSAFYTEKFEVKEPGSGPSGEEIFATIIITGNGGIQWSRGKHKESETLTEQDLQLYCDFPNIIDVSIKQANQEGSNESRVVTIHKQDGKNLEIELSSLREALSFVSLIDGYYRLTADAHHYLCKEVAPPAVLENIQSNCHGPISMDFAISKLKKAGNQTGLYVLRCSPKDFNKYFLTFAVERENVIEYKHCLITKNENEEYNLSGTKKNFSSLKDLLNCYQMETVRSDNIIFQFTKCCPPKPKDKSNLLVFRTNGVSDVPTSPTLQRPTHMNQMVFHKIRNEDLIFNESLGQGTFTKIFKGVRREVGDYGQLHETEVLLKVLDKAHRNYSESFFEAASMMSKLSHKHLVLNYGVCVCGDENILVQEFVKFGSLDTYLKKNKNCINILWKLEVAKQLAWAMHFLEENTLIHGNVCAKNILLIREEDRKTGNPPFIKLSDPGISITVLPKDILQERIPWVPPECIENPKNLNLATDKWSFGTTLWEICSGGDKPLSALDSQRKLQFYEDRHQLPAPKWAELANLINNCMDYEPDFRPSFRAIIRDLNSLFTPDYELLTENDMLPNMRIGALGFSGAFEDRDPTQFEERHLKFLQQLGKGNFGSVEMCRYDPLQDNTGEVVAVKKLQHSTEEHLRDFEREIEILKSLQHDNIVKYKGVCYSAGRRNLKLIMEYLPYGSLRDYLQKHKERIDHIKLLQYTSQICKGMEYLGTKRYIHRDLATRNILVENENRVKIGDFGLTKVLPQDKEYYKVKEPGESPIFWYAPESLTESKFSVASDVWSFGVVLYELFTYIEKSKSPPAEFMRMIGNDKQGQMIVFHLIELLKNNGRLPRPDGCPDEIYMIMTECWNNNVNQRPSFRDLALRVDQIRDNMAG

For the compound `COc1ccc(F)c(Cn2ncc3cnc(Nc4cnn(C)c4)nc32)c1` [Example 94, 1-(2-Fluoro-5-methoxybenzyl)-N-(1-methyl-1H-pyrazol-4-yl)-1H-pyrazolo[3,4-d]pyrimidin-6-amine], the IC50 is 1000 to 10000 nM against JAK2 and less than 100 nM on JAK3.
Consider `Cc1c(F)cccc1Cn1ncc2cnc(Nc3cnn(CC(F)F)c3)nc21` [Example 154, N-(1-(2,2-Difluoroethyl)-1H-pyrazol-4-yl)-1-(3-fluoro-2-methylbenzyl)-1H-pyrazolo[3,4-d]pyrimidin-6-amine], for which the figures for the IC50 on JAK2 and at JAK3 were 1000 to 10000 nM and 100 to 1000 nM, respectively.
Regarding `Cn1cc(Nc2ncc3cnn(Cc4cccc(Cl)c4Cl)c3n2)cn1` [Example 178, 1-(2,3-Dichlorobenzyl)-N-(1-methyl-1H-pyrazol-4-yl)-1H-pyrazolo[3,4-d]pyrimidin-6-amine], the results for the IC50 at JAK2 and against JAK3 were 1000 to 10000 nM and less than 100 nM, respectively.
For the compound `Fc1ccccc1Cn1ncc2cnc(Nc3cnn(CCC4CCOCC4)c3)nc21` [Example 165, 1-(2-Fluorobenzyl)-N-(1-(2-(tetrahydro-2H-pyran-4-yl)ethyl)-1H-pyrazol-4-yl)-1H-pyrazolo[3,4-d]pyrimidin-6-amine], the IC50 at JAK2 was 1000 to 10000 nM; at JAK3, less than 100 nM.
Regarding `Cn1cc(Nc2ncc3cnn(Cc4cccc(-c5ccnc(N)c5)c4)c3n2)cn1` [Example 206, 1-(3-(2-Aminopyridin-4-yl)benzyl)-N-(1-methyl-1H-pyrazol-4-yl)-1H-pyrazolo[3,4-d]pyrimidin-6-amine], the IC50 at JAK2 is not below 10000 nM; at JAK3, 100 to 1000 nM.
Turning to `Cn1cc(Nc2ncc3cnn(Cc4ccc(F)c(F)c4)c3n2)cn1` [Example 78, 1-(3,4-Difluorobenzyl)-N-(1-methyl-1H-pyrazol-4-yl)-1H-pyrazolo[3,4-d]pyrimidin-6-amine], the IC50 lay in the range of 1000 to 10000 nM against JAK2 and 100 to 1000 nM against JAK3.
Turning to `Cn1cc(Nc2ncc3cnn(Cc4cccc(F)c4)c3n2)cn1` [Example 67, 1-(3-Fluorobenzyl)-N-(1-methyl-1H-pyrazol-4-yl)-1H-pyrazolo[3,4-d]pyrimidin-6-amine], the IC50 is 100 to 1000 nM against JAK2 and less than 100 nM against JAK3.
As to `Cn1cc(Nc2ncc3cnn(Cc4cccc(OC[C@H]5CCCO5)n4)c3n2)cn1` [Example 193, (R)—N-(1-Methyl-1H-pyrazol-4-yl)-1-((6-((tetrahydrofuran-2-yl)methoxy)pyridin-2-yl)methyl)-1H-pyrazolo[3,4-d]pyrimidin-6-amine], the IC50 was not below 10000 nM at JAK2 and less than 100 nM against JAK3.
For `Cn1cc(Nc2ncc3cnn(Cc4cc(F)cc(F)c4)c3n2)cn1` [Example 79, 1-(3,5-Difluorobenzyl)-N-(1-methyl-1H-pyrazol-4-yl)-1H-pyrazolo[3,4-d]pyrimidin-6-amine], the 50% inhibitory concentration (IC50) against JAK2 is 100 to 1000 nM; on JAK3, less than 100 nM.
Take `OCCn1cc(Nc2ncc3cnn(Cc4cccc(F)n4)c3n2)cn1` [Example 314, 2-(4-((1-((6-Fluoropyridin-2-yl)methyl)-1H-pyrazolo[3,4-d]pyrimidin-6-yl)amino)-1H-pyrazol-1-yl)ethanol]: the IC50 against JAK2 is 100 to 1000 nM; at JAK3, less than 100 nM.
For the compound `Cn1cc(Nc2ncc3cnn(-c4cccc(C(=O)NCCO)c4)c3n2)cn1` [Example 147, N-(2-Hydroxyethyl)-3-(6-((1-methyl-1H-pyrazol-4-yl)amino)-1H-pyrazolo[3,4-d]pyrimidin-1-yl)benzamide], the IC50 is not below 10000 nM at JAK2 and 100 to 1000 nM on JAK3.
`COc1nn(CCO)cc1Nc1ncc2cnn(Cc3ccccc3F)c2n1` [Example 49, 2-(4-(1-(2-Fluorobenzyl)-1H-pyrazolo[3,4-d]pyrimidin-6-ylamino)-3-methoxy-1H-pyrazol-1-yl)ethanol]: the IC50 against JAK2 is 1000 to 10000 nM; against JAK3, less than 100 nM.
As for `Cn1cc(Nc2ncc3cnn(Cc4ccccc4C(=O)O)c3n2)cn1` [Example 41, 2-((6-(1-Methyl-1H-pyrazol-4-ylamino)-1H-pyrazolo[3,4-d]pyrimidin-1-yl)methyl)benzoic acid], the IC50 at JAK2 was in the range of 1000 to 10000 nM; at JAK3 it was 100 to 1000 nM.
Taken in the same sequence, the figures for `Cn1cc(Nc2ncc3cnn(-c4ccc(C(=O)N5CCOCC5)cc4)c3n2)cn1` [Example 137, (4-(6-((1-Methyl-1H-pyrazol-4-yl)amino)-1H-pyrazolo[3,4-d]pyrimidin-1-yl)phenyl)(morpholino)methanone] were 100 to 1000 nM and less than 100 nM.
For the compound `Cn1cc(Nc2ncc3cnn(-c4ccc(S(N)(=O)=O)cc4)c3n2)cn1` [Example 35, 4-(6-(1-Methyl-1H-pyrazol-4-ylamino)-1H-pyrazolo[3,4-d]pyrimidin-1-yl)benzenesulfonamide], the IC50 at JAK2 is 1000 to 10000 nM; against JAK3 it was less than 100 nM.
Taken in the same sequence, the figures for `Cn1cc(Nc2ncc3cnn(Cc4cccc(C(F)(F)F)c4)c3n2)cn1` [Example 66, N-(1-Methyl-1H-pyrazol-4-yl)-1-(3-(trifluoromethyl)benzyl)-1H-pyrazolo[3,4-d]pyrimidin-6-amine] were not below 10000 nM and 100 to 1000 nM.
Regarding `OCCn1ccc(Nc2ncc3cnn(Cc4ccccc4F)c3n2)c1` [Example 247, 2-(3-((1-(2-Fluorobenzyl)-1H-pyrazolo[3,4-d]pyrimidin-6-yl)amino)-1H-pyrrol-1-yl)ethanol], the IC50 at JAK2 is 100 to 1000 nM; against JAK3, less than 100 nM.
As for `Cn1cc(Nc2ncc3cnn(Cc4ccccc4F)c3n2)cn1` [Example 2, 1-(2-Fluorobenzyl)-N-(1-methyl-1H-pyrazol-4-yl)-1H-pyrazolo[3,4-d]pyrimidin-6-amine], the figures for the IC50 on JAK2 and at JAK3 were 1000 to 10000 nM and less than 100 nM, respectively.
With `OCCn1cc(Nc2ncc3cnn(Cc4ccccc4F)c3n2)cn1` [Example 34, 2-(4-(1-(2-Fluorobenzyl)-1H-pyrazolo[3,4-d]pyrimidin-6-ylamino)-1H-pyrazol-1-yl)ethanol], the values for the IC50 on JAK2 and on JAK3 were 100 to 1000 nM and less than 100 nM, respectively.
Take `COCCNC(=O)c1cccc(Cn2ncc3cnc(Nc4cnn(C)c4)nc32)c1` [Example 200]: the IC50 on JAK2 was not below 10000 nM; at JAK3 it was less than 100 nM.
Consider `Cn1cc(Nc2ncc3cnn(-c4ccc(C(N)=O)cc4)c3n2)cn1` [Example 135, 4-(6-((1-Methyl-1H-pyrazol-4-yl)amino)-1H-pyrazolo[3,4-d]pyrimidin-1-yl)benzamide], for which the IC50 lay in the range of 1000 to 10000 nM against JAK2 and 100 to 1000 nM against JAK3.
Turning to `Cn1cc(Nc2ncc3cnn(-c4ccc(C(=O)NCCO)cc4)c3n2)cn1` [Example 148, N-(2-Hydroxyethyl)-4-(6-((1-methyl-1H-pyrazol-4-yl)amino)-1H-pyrazolo[3,4-d]pyrimidin-1-yl)benzamide], the IC50 against JAK2 fell in the range of 1000 to 10000 nM; against JAK3, 100 to 1000 nM.
As to `CC(C)(O)Cn1cc(Nc2ncc3cnn(Cc4ccccc4F)c3n2)cn1` [Example 112, 1-(4-((1-(2-Fluorobenzyl)-1H-pyrazolo[3,4-d]pyrimidin-6-yl)amino)-1H-pyrazol-1-yl)-2-methylpropan-2-ol], the IC50 was 1000 to 10000 nM on JAK2 and less than 100 nM at JAK3.
For `CCn1cc(Nc2ncc3cnn(Cc4ccccc4C#N)c3n2)cn1` [Example 11, 2-((6-(1-Ethyl-1H-pyrazol-4-ylamino)-1H-pyrazolo[3,4-d]pyrimidin-1-yl)methyl)benzonitrile], the half-inhibitory concentration (IC50) is 1000 to 10000 nM at JAK2 and less than 100 nM against JAK3.

Broadly, the IC50 is the concentration that gives 50% inhibition.
